Data reported in patent US20100105729A1, “ARYL-SUBSTITUTED HETEROCYCLIC PDE4 INHIBITORS AS ANTI-INFLAMMATORY AGENTS” (KALYPSYS, INC., priority 2006, published 2010).

The molecules below were run against T1, PDE4B (Homo sapiens, UniProt Q07343) (assay: PDE4 IMAP Assay). Details: catalytic domain of PDE4B, fluorescence polarization.
T1 construct: hexa-histidine (His6) (N); made in house
Assay type: biochemical
Description: Compounds may be screened for functional potency in in vitro biochemical assays for their ability to inhibit the activity of phosphodiesterase (PDE) enzymes. A commercial PDE assay, Molecular Device's PDE IMAP assay, was modified and utilized to measure the inhibitory activity of compounds on PDE isoforms. The IMAP technology is based on the high affinity binding of phosphate by immobilized metal (MIII) coordination complexes on nanoparticles. This IMAP “binding reagent” complexes with phosphate groups on the nucleotide monophosphates generated in the reaction. Such binding causes a change in the rate of the molecular motion of the nucleotide, and results in an increase in the fluorescence polarization value observed for the fluorescent label attached to the substrate. PDE inhibitors prevent the generation of nucleotide monophosphates and the subsequent increase in polarization value observed for the fluorescent label attached to the substrate. The catalytic domain of PDE4B was fused to an amino-terminus hex-histadine affinity tag and purified. PDE4B enzyme was incubated with compounds for 10 minutes. Fluorescently labeled cyclic AMP substrates were then added to the PDE enzyme mix and incubated for 2 hours at room temperature. IMAP binding reagent was then added to the enzyme mix, incubated for 10-30 minutes and fluorescent polarization of the fluorescently labeled substrate was read either with the Perkin Elmer Viewlux or Molecular Devices Acquest or Analyst. Roflumilast and Rolipram are the positive controls used in the assay.

T1 sequence (Q07343 330-659 limits assumed, species assumed): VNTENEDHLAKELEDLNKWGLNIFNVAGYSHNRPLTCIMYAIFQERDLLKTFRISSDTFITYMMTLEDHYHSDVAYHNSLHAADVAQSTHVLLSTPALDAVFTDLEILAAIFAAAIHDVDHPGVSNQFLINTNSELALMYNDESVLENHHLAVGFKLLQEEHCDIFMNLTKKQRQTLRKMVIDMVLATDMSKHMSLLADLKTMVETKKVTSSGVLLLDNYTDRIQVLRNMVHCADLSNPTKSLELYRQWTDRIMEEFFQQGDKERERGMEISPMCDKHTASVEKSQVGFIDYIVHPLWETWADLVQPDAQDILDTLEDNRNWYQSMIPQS

`COc1ccc(C2CC(c3ccc(OC)c(OC)c3)=NN2C(=O)CCCC(=O)O)cc1` (stereo not shown) [Example 66, 5-(3-(3,4-dimethoxyphenyl)-5-(4-methoxyphenyl)-4,5-dihydro-1H-pyrazol-1-yl)-5-oxopentanoic acid] and `COc1ccc(C2CC(c3ccc(OC)c(OC)c3)=NN2C(=O)CCC(=O)O)cc1` (stereo not shown) [Example 97, 4-(3-(3,4-dimethoxyphenyl)-5-(4-methoxyphenyl)-4,5-dihydro-1H-pyrazol-1-yl)-4-oxobutanoic acid] cannot be ordered by inhibition at 10 µM: under 50% for the first, under 50% for the second.

`COc1ccc(C2=NN(C(=O)c3ccc(Br)o3)C(c3ccc(F)cc3)C2)cc1OC` (stereo not shown) [Example 46, (5-bromofuran-2-yl)(3-(3,4-dimethoxyphenyl)-5-(4-fluorophenyl)-4,5-dihydro-1H-pyrazol-1-yl)methanone] and `COc1ccc(C2=NN(C(=O)c3ccc(Br)o3)C(c3ccccc3)C2)cc1OC` (stereo not shown) [Example 51, (5-bromofuran-2-yl)(3-(3,4-dimethoxyphenyl)-5-phenyl-4,5-dihydro-1H-pyrazol-1-yl)methanone] cannot be ordered by inhibition at 10 µM: at least 50% for the first, at least 50% for the second.

`COc1ccc(C2=NN(C(=O)CCC(=O)O)C(c3ccc(OC)c(OC)c3)C2)cc1OC` (stereo not shown) [Example 68, 4-(3,5-bis(3,4-dimethoxyphenyl)-4,5-dihydro-1H-pyrazol-1-yl)-4-oxobutanoic acid] and `COc1ccc(C2=NN(C(C)=O)C(c3ccc(OC)c(OC)c3)C2)cc1OC` (stereo not shown) [Example 100, 1-(3,5-bis(3,4-dimethoxyphenyl)-4,5-dihydro-1H-pyrazol-1-yl)ethanone] cannot be ordered by inhibition at 10 µM: under 50% for the first, under 50% for the second.

`COc1ccc(C2=NN(S(=O)(=O)c3ccc(C)cc3)C(c3ccc(F)cc3)C2)cc1OC` (stereo not shown) [Example 55, 3-(3,4-dimethoxyphenyl)-5-(4-fluorophenyl)-1-tosyl-4,5-dihydro-1H-pyrazole] and `COc1ccc(C2=NN(S(=O)(=O)c3ccccc3)C(c3ccc(C)cc3)C2)cc1OC` (stereo not shown) [Example 56, 3-(3,4-dimethoxyphenyl)-1-(phenylsulfonyl)-5-p-tolyl-4,5-dihydro-1H-pyrazole] cannot be ordered by inhibition at 10 µM: under 50% for the first, under 50% for the second.

`COc1ccc2nc(Cl)c(C3CC(c4ccc(OC)c(OC)c4)=NN3C(=O)c3ccccc3)cc2c1` (stereo not shown) [Example 7, (5-(2-chloro-6-methoxyquinolin-3-yl)-3-(3,4-dimethoxyphenyl)-4,5-dihydro-1H-pyrazol-1-yl)(phenyl)methanone] and `CCC(=O)N1N=C(c2ccc(OC)c(OC)c2)CC1c1cc2cc(OC)ccc2nc1Cl` (stereo not shown) [Example 8, 1-(5-(2-chloro-6-methoxyquinolin-3-yl)-3-(3,4-dimethoxyphenyl)-4,5-dihydro-1H-pyrazol-1-yl)propan-1-one] cannot be ordered by inhibition at 10 µM: under 50% for the first, under 50% for the second.

`COc1ccc(C2=NN(S(=O)(=O)c3ccccc3)C(c3ccccc3Cl)C2)cc1OC` (stereo not shown) [Example 59, 5-(2-chlorophenyl)-3-(3,4-dimethoxyphenyl)-1-(phenylsulfonyl)-4,5-dihydro-1H-pyrazole] and `COc1ccc(C2=NN(S(=O)(=O)c3ccccc3)C(c3ccccc3F)C2)cc1OC` (stereo not shown) [Example 58, 3-(3,4-dimethoxyphenyl)-5-(2-fluorophenyl)-1-(phenylsulfonyl)-4,5-dihydro-1H-pyrazole] cannot be ordered by inhibition at 10 µM: under 50% for the first, under 50% for the second.

`COc1ccc(C2=NN(C(=O)c3ccccc3Cl)C(c3ccccc3F)C2)cc1OC` (stereo not shown) [Example 34, (2-chlorophenyl)(3-(3,4-dimethoxyphenyl)-5-(2-fluorophenyl)-4,5-dihydro-1H-pyrazol-1-yl)methanone] and `COc1ccc(C2=NN(C(=O)c3ccccc3Cl)C(c3cccc(OC)c3OC)C2)cc1OC` (stereo not shown) [Example 30, (2-chlorophenyl)(5-(2,3-dimethoxyphenyl)-3-(3,4-dimethoxyphenyl)-4,5-dihydro-1H-pyrazol-1-yl)methanone] cannot be ordered by inhibition at 10 µM: at least 50% for the first, under 50% for the second.

`COc1ccc2cc(C3CC(c4ccc(OC)c(OC)c4)=NN3C(=O)CCC(=O)O)c(Cl)nc2c1` (stereo not shown) [Example 22, 4-(5-(2-chloro-7-methoxyquinolin-3-yl)-3-(3,4-dimethoxyphenyl)-4,5-dihydro-1H-pyrazol-1-yl)-4-oxobutanoic acid] and `COc1ccc(C2=NN(C(=O)CCC(=O)O)C(c3ccc(C)cc3)C2)cc1OC` (stereo not shown) [Example 71, 4-(3-(3,4-dimethoxyphenyl)-5-p-tolyl-4,5-dihydro-1H-pyrazol-1-yl)-4-oxobutanoic acid] cannot be ordered by inhibition at 10 µM: under 50% for the first, under 50% for the second.

`CCc1ccc(C2CC(c3ccc(OC)c(OC)c3)=NN2S(C)(=O)=O)cc1` (stereo not shown) [Example 12, 3-(3,4-dimethoxyphenyl)-5-(4-ethylphenyl)-1-(methylsulfonyl)-4,5-dihydro-1H-pyrazole] and `CCc1ccc(C2CC(c3ccc(OC)c(OC)c3)=NN2C(C)=O)cc1` (stereo not shown) [Example 21, 1-(3-(3,4-dimethoxyphenyl)-5-(4-ethylphenyl)-4,5-dihydro-1H-pyrazol-1-yl)ethanone] cannot be ordered by inhibition at 10 µM: under 50% for the first, under 50% for the second.

`CCc1ccc(C2CC(c3ccc(OC)c(OC)c3)=NN2C(=O)CCC(=O)O)cc1` (stereo not shown) [Example 19, 4-(3-(3,4-dimethoxyphenyl)-5-(4-ethylphenyl)-4,5-dihydro-1H-pyrazol-1-yl)-4-oxobutanoic acid] and `COc1ccc(C2CC(c3ccc(OC)c(OC)c3)=NN2C(=O)c2cccs2)cc1` (stereo not shown) [Example 41, (3-(3,4-dimethoxyphenyl)-5-(4-methoxyphenyl)-4,5-dihydro-1H-pyrazol-1-yl)(thiophen-2-yl)methanone] cannot be ordered by inhibition at 10 µM: under 50% for the first, at least 50% for the second.

`COc1ccc(OC)c(C2CC(c3ccc(OC)c(OC)c3)=NN2S(=O)(=O)c2ccc(C)cc2)c1` (stereo not shown) [Example 89, 5-(2,5-dimethoxyphenyl)-3-(3,4-dimethoxyphenyl)-1-tosyl-4,5-dihydro-1H-pyrazole] and `COc1ccc(C2=NN(S(=O)(=O)c3ccc(C)cc3)C(c3ccccc3OC)C2)cc1OC` (stereo not shown) [Example 93, 3-(3,4-dimethoxyphenyl)-5-(2-methoxyphenyl)-1-tosyl-4,5-dihydro-1H-pyrazole] cannot be ordered by inhibition at 10 µM: under 50% for the first, under 50% for the second.

`COc1ccc(C2=NN(S(C)(=O)=O)C(c3cccc(OC)c3OC)C2)cc1OC` (stereo not shown) [Example 11, 5-(2,3-dimethoxyphenyl)-3-(3,4-dimethoxyphenyl)-1-(methylsulfonyl)-4,5-dihydro-1H-pyrazole] and `COc1ccc(C2=NN(S(C)(=O)=O)C(c3ccccc3Cl)C2)cc1OC` (stereo not shown) [Example 15, 5-(2-chlorophenyl)-3-(3,4-dimethoxyphenyl)-1-(methylsulfonyl)-4,5-dihydro-1H-pyrazole] cannot be ordered by inhibition at 10 µM: under 50% for the first, under 50% for the second.

`COc1ccc(C2CC(c3ccc(OC)c(OC)c3)=NN2C(=O)c2ccccc2)cc1` (stereo not shown) [Example 36, (3-(3,4-dimethoxyphenyl)-5-(4-methoxyphenyl)-4,5-dihydro-1H-pyrazol-1-yl)(phenyl)methanone] and `COc1ccc(C2=NN(C(=O)c3ccc(Br)o3)C(c3ccccc3F)C2)cc1OC` (stereo not shown) [Example 49, (5-bromofuran-2-yl)(3-(3,4-dimethoxyphenyl)-5-(2-fluorophenyl)-4,5-dihydro-1H-pyrazol-1-yl)methanone] cannot be ordered by inhibition at 10 µM: at least 50% for the first, at least 50% for the second.

`COc1ccc(C2=NN(S(=O)(=O)c3ccccc3)C(c3ccccc3)C2)cc1OC` (stereo not shown) [Example 63, 3-(3,4-dimethoxyphenyl)-5-phenyl-1-(phenylsulfonyl)-4,5-dihydro-1H-pyrazole] and `COc1ccc(C2=NN(S(C)(=O)=O)C(c3cccs3)C2)cc1OC` (stereo not shown) [Example 2, 3-(3,4-dimethoxyphenyl)-1-(methylsulfonyl)-5-(thiophen-2-yl)-4,5-dihydro-1H-pyrazole] cannot be ordered by inhibition at 10 µM: under 50% for the first, under 50% for the second.
